Data: ChEMBL document CHEMBL1137927, “Initial structure-activity relationships of lysophosphatidic acid receptor antagonists: discovery of a high-affinity LPA1/LPA3 receptor antagonist” (Bioorg Med Chem Lett, 2004)

Key:
[1] = target: Lysophosphatidic acid receptor 1 (Homo sapiens, UniProt Q92633); experiment: In vitro ability to antagonize LPA-evoked [35S]GTP-gamma-S binding to lysophosphatidic acid receptor 1 in HEK293T cell lines; assay type: functional, cell-based, HEK-293T
[2] = target: T1, Lysophosphatidic acid receptor 3 (Homo sapiens, UniProt Q9UBY5); experiment: In vitro antagonism of LPA-evoked [35S]GTP-gamma-S binding to lysophosphatidic acid receptor 3 in HEK293T cell lines; assay type: functional, cell-based, HEK-293T
T1 sequence (Q9UBY5 whole entry): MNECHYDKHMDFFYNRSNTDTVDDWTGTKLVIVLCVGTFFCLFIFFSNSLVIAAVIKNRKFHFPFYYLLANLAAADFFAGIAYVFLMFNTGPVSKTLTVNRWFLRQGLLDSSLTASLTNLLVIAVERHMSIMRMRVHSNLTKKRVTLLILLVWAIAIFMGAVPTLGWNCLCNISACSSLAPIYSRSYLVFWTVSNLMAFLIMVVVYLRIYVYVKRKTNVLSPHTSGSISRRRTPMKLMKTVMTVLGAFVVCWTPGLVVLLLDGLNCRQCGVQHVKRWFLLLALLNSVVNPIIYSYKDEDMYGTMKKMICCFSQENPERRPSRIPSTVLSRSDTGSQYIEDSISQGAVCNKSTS

Lysophosphatidic acid receptor 1, sequence (Q92633 whole entry): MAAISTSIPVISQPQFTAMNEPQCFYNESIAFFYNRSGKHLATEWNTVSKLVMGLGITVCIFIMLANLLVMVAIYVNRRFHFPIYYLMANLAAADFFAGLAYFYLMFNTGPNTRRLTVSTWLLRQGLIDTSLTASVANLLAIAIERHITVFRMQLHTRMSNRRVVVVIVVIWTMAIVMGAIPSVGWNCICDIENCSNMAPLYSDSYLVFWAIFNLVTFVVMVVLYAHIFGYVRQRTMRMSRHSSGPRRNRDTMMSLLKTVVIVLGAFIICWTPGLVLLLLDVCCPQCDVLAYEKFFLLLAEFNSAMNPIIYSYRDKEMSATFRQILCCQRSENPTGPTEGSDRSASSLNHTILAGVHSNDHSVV

IC50 [1] [µM]	IC50 [2] [µM]	Ki [1] [µM]	SMILES
> 10	0.427	–	CCCCCCCC/C=C\CCCCCCCC(=O)N[C@@H](COP(=O)(O)O)Cc1ccc(OC(=O)c2cc(OC)c(OC)c(OC)c2)cc1
> 10	6.84	–	CCCCCCCCCCCCCCCC(=O)NC(COP(=O)(O)O)Cc1ccc(OCc2ccccc2)cc1 (stereo not drawn)
> 10	3.28	–	C#CCCCCOc1ccc(C[C@H](COP(=O)(O)O)NC(=O)CCCCCCC/C=C\CCCCCCCC)cc1
0.109	0.175	0.018	CCCCCCCC/C=C\CCCCCCCC(=O)N[C@@H](COP(=O)(O)O)Cc1ccc(OCc2ccccn2)cc1
> 10	> 10	–	CCCCCCCC/C=C\CCCCCCCC(=O)N[C@H](COP(=O)(O)O)Cc1ccc(OC(=O)c2ccc(N)cc2)cc1
> 10	9.26	–	CCCCCCCC/C=C\CCCCCCCC(=O)N[C@H](COP(=O)(O)O)Cc1ccc(Oc2cc3ccccc3[nH]2)cc1
4.25	> 10	–	CCCCC/C=C\C/C=C\CCCCCCCC(=O)NC(COP(=O)(O)O)Cc1ccc(OCc2ccccc2)cc1 (stereo not drawn)
> 10	6.41	–	CCCCCCCC/C=C\CCCCCCCC(=O)N[C@@H](COP(=O)(O)O)Cc1ccc(OCC)cc1
> 10	> 10	–	CCCCCCCC/C=C\CCCCCCCC(=O)N[C@H](COP(=O)(O)O)Cc1ccc(OCc2ccccc2)cc1
> 10	5.92	–	CCCCCCCC/C=C\CCCCCCCC(=O)N[C@H](COP(=O)(O)O)Cc1ccc(OCCC(C)C)cc1
> 10	4.03	–	CCCCCCCC/C=C\CCCCCCCC(=O)N[C@@H](COP(=O)(O)O)Cc1ccc(OCC2CCCCC2)cc1
> 10	> 10	–	CCCCCCCC/C=C\CCCCCCCC(=O)N[C@H](COP(=O)(O)O)Cc1ccc(OC(=O)c2ccc(CCCCC)cc2)cc1
> 10	> 10	–	CCCCCCCCCCCCCCCCCC(=O)N[C@@H](COP(=O)(O)O)Cc1ccc(OC2O[C@H](CO)[C@@H](O)[C@H](O)[C@H]2O)cc1 (stereo partly drawn)
9.03	> 10	–	CCCCCCCCCCCCCC(=O)NC(COP(=O)(O)O)Cc1ccc(OCc2ccccc2)cc1 (stereo not drawn)
1.07	0.0356	0.034	CCCCCCCC/C=C\CCCCCCCC(=O)N[C@@H](COP(=O)(O)O)Cc1ccc(OCc2cccc(OC)c2)cc1
> 10	6.93	–	CCCCCCCC/C=C\CCCCCCCC(=O)N[C@H](COP(=O)(O)O)Cc1ccc(OCC)cc1
2.93	2.31	0.134	CCCCCCCC/C=C\CCCCCCCC(=O)N[C@@H](COP(=O)(O)O)Cc1ccc(OC2Cc3ccccc3C2)cc1
7	2.63	0.073	CCCCCCCC/C=C\CCCCCCCC(=O)N[C@@H](COP(=O)(O)O)Cc1ccc(Oc2cc3ccccc3[nH]2)cc1
7.97	> 10	–	CCCCCCCC(=O)NC(COP(=O)(O)O)Cc1ccc(OCc2ccccc2)cc1 (stereo not drawn)
> 10	0.351	–	CCCCCCCC/C=C\CCCCCCCC(=O)N[C@@H](COP(=O)(O)O)Cc1ccc(OCCC(C)C)cc1
2.49	> 10	–	CCCCCCCC/C=C\CCCCCCCC(=O)N[C@@H](COP(=O)(O)O)Cc1ccc(OCc2ccccc2)cc1
> 10	> 10	–	C=CCOc1ccc(C[C@@H](COP(=O)(O)O)NC(=O)CCCCCCC/C=C\CCCCCCCC)cc1
> 10	> 10	–	CCCCCCCC/C=C\CCCCCCCC(=O)N[C@@H](COP(=O)(O)O)Cc1ccc(OC)cc1
0.604	0.94	0.156	CCCCCCCC/C=C\CCCCCCCC(=O)N[C@H](COP(=O)(O)O)Cc1ccc(OCc2ccccn2)cc1
> 10	> 10	–	C#CCOc1ccc(C[C@@H](COP(=O)(O)O)NC(=O)CCCCCCC/C=C\CCCCCCCC)cc1
5.66	0.642	0.642	CCCCCCCC/C=C\CCCCCCCC(=O)N[C@H](COP(=O)(O)O)Cc1ccc(OCc2cccc(OC)c2)cc1
5.21	6.45	0.137	CCCCCCCC/C=C\CCCCCCCC(=O)NC(COP(=O)(O)O)Cc1ccc(OCc2ccccc2)cc1 (stereo not drawn)
> 10	7.22	–	CCCCCCCCCCCCCCCC(=O)NC(COP(=O)(O)O)Cc1ccc(OCc2cccc(OC)c2)cc1 (stereo not drawn)
